Among the data in ChEMBL document CHEMBL3879911, “Heteroaryl compounds useful as inhibitors of E1 activating enzymes” (2008) are IC50 values, retold here.

Some results are limits rather than exact numbers.

In this assay the target is T1, NEDD8 activating enzyme (Homo sapiens, UniProt Q8TBC4).
T1 sequence (Q8TBC4 whole entry): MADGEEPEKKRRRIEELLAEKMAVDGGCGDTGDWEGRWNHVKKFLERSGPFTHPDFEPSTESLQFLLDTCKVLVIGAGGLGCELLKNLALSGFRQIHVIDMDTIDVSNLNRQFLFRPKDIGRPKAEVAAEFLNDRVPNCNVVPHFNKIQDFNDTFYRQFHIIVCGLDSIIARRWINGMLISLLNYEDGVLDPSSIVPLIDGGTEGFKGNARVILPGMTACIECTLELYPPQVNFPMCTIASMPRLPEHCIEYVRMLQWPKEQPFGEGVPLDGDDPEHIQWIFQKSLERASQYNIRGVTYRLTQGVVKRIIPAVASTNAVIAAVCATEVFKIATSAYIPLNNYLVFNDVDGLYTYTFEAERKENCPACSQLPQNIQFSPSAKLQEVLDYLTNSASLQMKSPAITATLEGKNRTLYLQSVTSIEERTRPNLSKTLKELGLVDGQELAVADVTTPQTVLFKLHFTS
T1 sequence (Q13564 whole entry): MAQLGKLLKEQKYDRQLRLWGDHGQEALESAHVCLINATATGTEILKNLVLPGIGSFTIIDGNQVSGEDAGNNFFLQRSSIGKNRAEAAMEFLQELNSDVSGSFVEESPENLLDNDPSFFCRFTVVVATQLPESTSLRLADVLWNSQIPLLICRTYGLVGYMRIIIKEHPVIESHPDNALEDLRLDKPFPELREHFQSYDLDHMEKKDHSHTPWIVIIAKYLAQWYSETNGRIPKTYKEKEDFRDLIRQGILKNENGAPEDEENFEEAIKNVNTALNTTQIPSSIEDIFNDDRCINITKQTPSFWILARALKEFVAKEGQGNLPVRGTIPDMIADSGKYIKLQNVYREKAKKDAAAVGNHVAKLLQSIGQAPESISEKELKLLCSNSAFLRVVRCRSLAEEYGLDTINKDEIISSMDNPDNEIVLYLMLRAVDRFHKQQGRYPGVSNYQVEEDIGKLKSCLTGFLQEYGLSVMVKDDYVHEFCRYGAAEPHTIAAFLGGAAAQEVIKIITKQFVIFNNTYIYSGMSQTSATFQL
The assay can be described thus: Inhibition of recombinant human NAEalpha/N-terminal His-tagged NAEbeta expressed in baculovirus infected insect Sf9 cells using N-terminal FLAG tagged Nedd8 as substrate incubated for 105 mins in presence of N-terminal GST-tagged Ubc12 by FRET assay.
Take `NS(=O)(=O)OC[C@@H]1C[C@@H](Nc2ncnc3[nH]c(-c4cccc5c4CCCC5)nc23)C[C@@H]1O`: the IC50 (usually the concentration that inhibits the measured activity by half) was at most 500 nM. Under `CC1(C)Cc2cccc(-c3nc4c(N[C@@H]5C[C@@H](COS(N)(=O)=O)[C@@H](O)C5)ncnc4[nH]3)c2O1` stands at most 500 nM; under `NS(=O)(=O)OC[C@@H]1C[C@@H](Oc2cc(NC3CCCC3)ncn2)C[C@@H]1O`, 500 to 10000 nM; under `NS(=O)(=O)OC[C@@H]1C[C@@H](Nc2ncnc3[nH]c(Cc4ccccc4)nc23)C[C@@H]1O`, at most 500 nM.

Turning to `NS(=O)(=O)OC[C@@H]1C[C@@H](Nc2ncnc3oc(-c4ccccc4)nc23)C[C@@H]1O`, the IC50 is at most 500 nM.

For the compound `CO[C@H]1c2ccccc2C[C@H]1Oc1cc(O[C@@H]2C[C@@H](COS(N)(=O)=O)[C@@H](O)C2)ncn1`, the IC50 lay in the range of 500 to 10000 nM. Turning to `Cc1cccc(S(=O)(=O)c2nc3c(O[C@@H]4C[C@@H](COS(N)(=O)=O)[C@@H](O)C4)ncnc3[nH]2)c1`, the IC50 was at most 500 nM. Under `CO[C@@H]1c2ccccc2C[C@@H]1Oc1cc(O[C@@H]2C[C@@H](COS(N)(=O)=O)[C@@H](O)C2)ncn1` stands 500 to 10000 nM; under `NS(=O)(=O)OC[C@@H]1C[C@@H](Oc2cc(-c3ccccc3)ncn2)C[C@@H]1O`, 500 to 10000 nM.

In the case of `NS(=O)(=O)OC[C@H]1C[C@@H](Nc2cc(Nc3cccc4c3CCCC4)ncn2)[C@H](O)[C@@H]1O`, the IC50 was at most 500 nM. Under `NS(=O)(=O)OC[C@@H]1C[C@@H](Nc2ncnc3[nH]c(-c4ccccc4C(F)(F)F)nc23)C[C@@H]1O` stands at most 500 nM. Regarding `NS(=O)(=O)OC[C@@H]1C[C@@H](Nc2ncnc3[nH]c(-c4ccccc4OCc4ccccc4)nc23)C[C@@H]1O`, the IC50 is at most 500 nM. Under `NS(=O)(=O)OC[C@H]1C[C@@H](Nc2nc(N[C@H]3CCc4ccccc43)ncc2F)[C@H](O)[C@@H]1O` stands 500 to 10000 nM; under `NS(=O)(=O)OC[C@@H]1C[C@@H](Oc2cc(OCc3cccc4ccccc34)ncn2)C[C@@H]1O`, 500 to 10000 nM; under `CO[C@H]1Cc2ccccc2[C@H]1Oc1cc(O[C@@H]2C[C@@H](COS(N)(=O)=O)[C@@H](O)C2)ncn1`, 500 to 10000 nM. Under `NS(=O)(=O)OC[C@@H]1C[C@@H](Oc2ccncn2)C[C@@H]1O` stands over 10000 nM; under `CN(c1cc(N[C@H]2CCc3ccccc32)ncn1)[C@@H]1C[C@H](COS(N)(=O)=O)[C@@H](O)[C@H]1O`, at most 500 nM. For the compound `NS(=O)(=O)OC[C@@H]1C[C@@H](Nc2ncnc3nc(-c4cccc5cccnc45)[nH]c23)C[C@@H]1O`, the IC50 is at most 500 nM. Under `Cn1c(-c2ccccc2)nc2c(N[C@@H]3C[C@@H](COS(N)(=O)=O)[C@@H](O)C3)ncnc21` stands at most 500 nM. In the case of `NS(=O)(=O)OC[C@@H]1C[C@@H](Nc2ncnc3nc(-c4ccc(OCc5ccccc5)cc4)[nH]c23)C[C@@H]1O`, the IC50 is at most 500 nM. Under `NS(=O)(=O)OC[C@@H]1C[C@@H](Nc2ncnc3[nH]c(-c4cccc(-c5ccccc5)c4)nc23)C[C@@H]1O` stands at most 500 nM; under `CN(C)c1ccc(-c2nc3ncnc(O[C@@H]4C[C@@H](COS(N)(=O)=O)[C@@H](O)C4)c3[nH]2)c2ccccc12`, at most 500 nM. Under `Cc1cccc(Sc2nc3ncnc(O[C@@H]4C[C@@H](COS(N)(=O)=O)[C@@H](O)C4)c3[nH]2)c1` stands at most 500 nM.

Consider `CO[C@H]1Cc2ccccc2[C@H]1Nc1ncnc(O[C@@H]2C[C@@H](COS(N)(=O)=O)[C@@H](O)C2)c1F`, for which the IC50 is at most 500 nM. Under `CN(c1ncnc2c1nc(-c1ccccc1)n2C)[C@@H]1C[C@@H](COS(N)(=O)=O)[C@@H](O)C1` stands 500 to 10000 nM. With `CN(C)c1ccccc1-c1nc2c(N[C@@H]3C[C@@H](COS(N)(=O)=O)[C@@H](O)C3)ncnc2[nH]1`, the IC50 is at most 500 nM. Under `NS(=O)(=O)OC[C@@H]1C[C@@H](Oc2cc(Cc3ccccc3)ncn2)C[C@@H]1O` stands 500 to 10000 nM; under `OC[C@@H]1C[C@@H](Nc2ncnc3[nH]c(-c4cccc5c4CCCC5)nc23)C[C@@H]1O`, 500 to 10000 nM. In the case of `NS(=O)(=O)OC[C@@H]1C[C@@H](Oc2ccnc3[nH]c(-c4cccc5ccccc45)nc23)C[C@@H]1O`, the IC50 was at most 500 nM.

With `CO[C@H]1Cc2ccccc2[C@H]1Nc1cc(O[C@@H]2C[C@@H](CNS(N)(=O)=O)[C@@H](O)C2)ncn1`, the IC50 was at most 500 nM. In the case of `NS(=O)(=O)OC[C@@H]1C[C@@H](Oc2ncnc3nc(-c4cncc5ccccc45)[nH]c23)C[C@@H]1O`, the IC50 was at most 500 nM. Under `NS(=O)(=O)OC[C@H]1C[C@@H](Nc2cc(N[C@H]3CCC[C@@H]3OCc3ccccc3)ncn2)[C@H](O)[C@@H]1O` stands 500 to 10000 nM. With `CO[C@@H]1Cc2ccccc2[C@@H]1Oc1cc(O[C@@H]2C[C@@H](COS(N)(=O)=O)[C@@H](O)C2)ncn1`, the IC50 fell in the range of 500 to 10000 nM.

Take `CC1(C)C[C@H](Nc2ncnc(N[C@@H]3C[C@@H](COS(N)(=O)=O)[C@@H](O)C3)n2)c2ccccc21`: the 50% inhibitory concentration (IC50) was at most 500 nM. Under `OC[C@@H]1C[C@@H](Nc2ncnc3[nH]c(-c4cccc5c4OCCO5)nc23)C[C@@H]1O` stands 500 to 10000 nM; under `COc1cccc(-c2nc3c(N[C@@H]4C[C@@H](COS(N)(=O)=O)[C@@H](O)C4)ncnc3[nH]2)c1`, at most 500 nM. For the compound `NS(=O)(=O)OC[C@@H]1C[C@@H](Oc2ncnc3[nH]c(-c4cccc5ccccc45)nc23)C[C@@H]1O`, the IC50 was at most 500 nM. For the compound `NS(=O)(=O)OC[C@H]1C[C@@H](Nc2cc(CCc3ccccc3)ncn2)[C@H](O)[C@@H]1O`, the IC50 fell in the range of 500 to 10000 nM. Take `NS(=O)(=O)OC[C@@H]1C[C@@H](Nc2ncnc3[nH]c(-c4ccccc4)nc23)C[C@@H]1O`: the IC50 was at most 500 nM.

Consider `NS(=O)(=O)OC[C@@H]1C[C@@H](Nc2ncnc3[nH]c(C4CCCCC4)nc23)C[C@@H]1O`, for which the IC50 was at most 500 nM. Under `COc1cccc(OC)c1-c1nc2c(N[C@@H]3C[C@@H](COS(N)(=O)=O)[C@@H](O)C3)ncnc2[nH]1` stands at most 500 nM. Under `NS(=O)(=O)OC[C@@H]1C[C@@H](Oc2ncnc3nc(-c4cnn(Cc5ccccc5)c4)[nH]c23)C[C@@H]1O` stands at most 500 nM.

In the case of `Cc1cccc(-c2nc3c(N[C@@H]4C[C@@H](COS(N)(=O)=O)[C@@H](O)C4)ncnc3[nH]2)c1C`, the IC50 is at most 500 nM. Under `NS(=O)(=O)OC[C@@H]1C[C@@H](Oc2ccnc(N[C@H]3CCc4ccccc43)c2)C[C@@H]1O` stands 500 to 10000 nM; under `CC1(C)C[C@H](Nc2ncnc(N[C@@H]3C[C@@H](COS(N)(=O)=O)[C@@H](O)C3)c2F)c2ccccc21`, at most 500 nM.

For `NS(=O)(=O)OC[C@@H]1C[C@@H](Oc2ncnc3nc(-c4ccnc5cc(Cl)ccc45)[nH]c23)C[C@@H]1O`, the IC50 was at most 500 nM. As to `CC1(C)C[C@H](Nc2cc(O[C@@H]3C[C@@H](COS(N)(=O)=O)[C@@H](O)C3)ncn2)c2ccccc21`, the IC50 is at most 500 nM. Under `NS(=O)(=O)OC[C@@H]1C[C@@H](Nc2ncnc3[nH]c(-c4cccc5ccccc45)cc23)C[C@@H]1O` stands at most 500 nM; under `CO[C@H]1Cc2ccccc2[C@H]1Nc1ncnc(N[C@@H]2C[C@@H](COS(N)(=O)=O)[C@@H](O)C2)n1`, at most 500 nM; under `NS(=O)(=O)OC[C@@H]1C[C@@H](O)[C@H](Nc2cc(N[C@H]3CCc4ccccc43)ncn2)C1`, over 10000 nM. On to `NS(=O)(=O)OC[C@@H]1C[C@@H](Nc2ncnc3[nH]c(-c4ccc(Cl)cc4)nc23)C[C@@H]1O`, for which the IC50 was at most 500 nM. Under `CO[C@H]1Cc2ccccc2[C@H]1Nc1cc(O[C@@H]2C[C@@H](COS(N)(=O)=O)[C@@H](O)C2)ncn1` stands at most 500 nM; under `NS(=O)(=O)OC[C@H]1C[C@@H](Nc2cc(N[C@@H]3CCC[C@H]3OCc3ccccc3)ncn2)[C@H](O)[C@@H]1O`, over 10000 nM.

With `NS(=O)(=O)OC[C@@H]1C[C@@H](Nc2ncnc3nc(-c4cccc5c4OCC5)[nH]c23)C[C@@H]1O`, the IC50 is at most 500 nM. For `NS(=O)(=O)OC[C@@H]1C[C@@H](Oc2ncnc3c2ncn3Cc2ccccc2)C[C@@H]1O`, the IC50 is 500 to 10000 nM. Under `NS(=O)(=O)OC[C@@H]1C[C@@H](Oc2cc(N3Cc4ccccc4C3)ncn2)C[C@@H]1O` stands 500 to 10000 nM; under `CC(C)(C)c1nc2c(N[C@@H]3C[C@@H](COS(N)(=O)=O)[C@@H](O)C3)ncnc2[nH]1`, at most 500 nM. Under `NS(=O)(=O)OC[C@H]1C[C@@H](Nc2cc(C#Cc3ccccc3)ncn2)[C@H](O)[C@@H]1O` stands at most 500 nM. Under `Cc1ccccc1-c1nc2c(N[C@@H]3C[C@@H](COS(N)(=O)=O)[C@@H](O)C3)ncnc2[nH]1` stands at most 500 nM; under `NS(=O)(=O)OC[C@@H]1C[C@@H](Nc2cc(CCc3ccccc3)ncn2)C[C@@H]1O`, 500 to 10000 nM.

On to `NS(=O)(=O)OC[C@@H]1C[C@@H](Oc2cc(OCc3ccc(Cl)cc3)ncn2)C[C@@H]1O`, for which the IC50 is over 10000 nM.
